We go through one molecule from patent US20260253701A1, “EEG BIOMARKERS FOR ALPHA5 PAM DOSAGE DETERMINATION AND THERAPEUTIC MONITORING” (priority 2022, published 2026).

For assay [1], the target named is T1, α5 subunit receptors (Homo sapiens, UniProt P18507+P31644). As to conditions: 3 μM; higher levels more strongly target α1, α2, & α3 subunit receptors; cited from earlier work.
Target sequence in this assay (P28472 26-473): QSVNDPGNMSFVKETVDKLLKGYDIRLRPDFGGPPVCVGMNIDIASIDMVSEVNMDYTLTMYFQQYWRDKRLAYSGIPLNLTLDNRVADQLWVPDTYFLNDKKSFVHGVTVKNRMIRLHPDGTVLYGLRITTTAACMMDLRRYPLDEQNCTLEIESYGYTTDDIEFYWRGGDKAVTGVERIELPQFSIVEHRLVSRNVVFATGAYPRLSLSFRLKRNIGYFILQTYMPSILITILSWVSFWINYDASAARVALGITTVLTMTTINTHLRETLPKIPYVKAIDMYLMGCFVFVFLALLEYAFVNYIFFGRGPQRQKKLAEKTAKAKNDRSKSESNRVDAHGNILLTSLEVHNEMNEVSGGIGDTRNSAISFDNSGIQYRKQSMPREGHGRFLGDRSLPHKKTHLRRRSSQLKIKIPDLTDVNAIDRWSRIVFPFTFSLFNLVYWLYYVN
Target sequence in this assay (P18507 40-467): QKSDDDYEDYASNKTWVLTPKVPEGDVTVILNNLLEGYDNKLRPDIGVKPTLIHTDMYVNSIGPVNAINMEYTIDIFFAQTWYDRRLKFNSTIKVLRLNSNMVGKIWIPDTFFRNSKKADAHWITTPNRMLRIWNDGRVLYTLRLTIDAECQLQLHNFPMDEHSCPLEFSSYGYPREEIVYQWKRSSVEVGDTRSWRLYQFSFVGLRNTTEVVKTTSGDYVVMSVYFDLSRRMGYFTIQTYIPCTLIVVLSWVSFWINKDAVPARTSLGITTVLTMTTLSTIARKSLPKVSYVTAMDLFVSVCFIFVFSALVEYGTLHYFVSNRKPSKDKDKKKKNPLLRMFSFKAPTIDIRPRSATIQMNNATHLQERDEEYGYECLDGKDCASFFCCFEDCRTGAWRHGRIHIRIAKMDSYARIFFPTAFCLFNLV
Target sequence in this assay (P31644 32-462): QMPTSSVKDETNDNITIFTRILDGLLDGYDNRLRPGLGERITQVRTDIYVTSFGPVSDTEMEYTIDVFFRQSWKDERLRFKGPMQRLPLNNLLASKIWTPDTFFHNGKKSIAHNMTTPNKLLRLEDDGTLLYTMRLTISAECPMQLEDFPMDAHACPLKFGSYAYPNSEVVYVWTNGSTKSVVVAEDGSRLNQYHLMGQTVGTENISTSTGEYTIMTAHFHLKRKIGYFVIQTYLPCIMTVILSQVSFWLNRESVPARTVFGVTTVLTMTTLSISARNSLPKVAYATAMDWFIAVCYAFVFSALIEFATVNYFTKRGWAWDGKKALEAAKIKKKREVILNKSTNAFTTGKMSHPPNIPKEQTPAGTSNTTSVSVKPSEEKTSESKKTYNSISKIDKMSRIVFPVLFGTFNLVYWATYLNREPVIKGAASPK
The subject of assay [2] is chronically stressed mice. As to conditions: mouse, in vivo; cited from earlier work.
The target in assay [3] is T1, α5 subunit receptors. Kind of assay: whole-cell voltage-clamp recordings of tonic inhibition current in human cortical L2/3 Pyr neurons. Format: cell-based. On the set-up: Neocortical tissue resected during tumor resection and anterior temporal lobectomy; from tissue; host or cells: human neocortical slices (resected frontal/temporal lobe tissue), L2/3 pyramidal neurons. From the text: Electrophysiology Data. We used whole-cell voltage-clamp recordings of baseline tonic inhibition current and tonic inhibition current during exposure to α5-PAM in human cortical L2/3 Pyr neurons (10 cells: 9 cells from 3 male subjects, 1 cell from 1 subject) from patients undergoing a standard anterior temporal lobectomy or tumor resection from the frontal or temporal lobe. Written informed consent was obtained from all participants, in accordance with the Declaration of Helsinki and the University Health Network Research Ethics board.
The data was collected using surgery resection, solutions, tissue preparation, and recording equipment described in Chameh et al., 2021 Nature Communications, 12(1), 2497 and Yao et al., 2022 Cell Reports, 38(2). Neocortical tissue resected during tumor resection and anterior temporal lobectomy was immediately submerged in ice-cold (~4° C.) cutting solution and transferred to a recording chamber within 20 minutes.
For recordings, slices were transferred to a recording chamber mounted on a fixed-stage upright microscope (Axioskop 2 FS MOT; Carl Zeiss, Germany). Slices were continually perfused at 4 ml/min with standard aCSF at 32-34° C. Whole-cell patch-clamp recordings were obtained using a Multiclamp 700 A amplifier, Axopatch 200B amplifier, and pClamp 9.2 and pClamp 10.6 data acquisition software (Axon instruments, Molecular Devices, USA). Subsequently, electrical signals were digitized at 20 kHz using a 1320X digitizer. For voltage-clamp recordings of tonic current, low-resistance patch pipettes (2-4 MΩ) were filled with a CsCl-based solution containing (in mM) 140 CsCl, 10 EGTA, 10 Hepes, 2 MgCl2, 2 Na2ATP, 0.3 GTP, and 5 QX314 adjusted to pH 7.3 with CsOH. The junction potential was calculated to be 4.3 mV and the holding potential was-74.3 mV after junction potential correction. In this configuration, 5 μM GABA, 25 μM AP5, 10 μM CNQX, and 10 μM CGP-35348 were first applied to generate larger GABA-dependent currents and assess baseline tonic inhibition currents while also blocking AMPA, NMDA, and GABAB mediated currents. […]
Target sequence in this assay (P31644 32-462): as above
Target sequence in this assay (P28472 26-473, further chain): as the sequence (P28472 26-473) above
Target sequence in this assay (P18507 40-467): as the sequence (P18507 40-467) above

SMILES strings stand for the structures.

For `C#Cc1ccc2c(c1)C(c1ccccc1F)=N[C@H](C)c1c(C(=O)N(C)C)ncn1-2` [α5-PAM, GL-II-73], the subunit selectivity entry at α5 subunit receptors [1] is reported as “selectively targeting α5 subunit receptors”. In assay [2], the “effect in chronically stressed mice” value is “pro-cognitive effects”. Further, the “mean amplitude of tonic inhibitory current relative to endogenous current in picrotoxin condition” value at α5 subunit receptors [3] (3 μM with 5 μM GABA, ± standard error of the mean, n=10 cells, baseline 65.86±10.28) worked out at 95.28±14.52 pA. Further, the “tonic inhibition current magnitude” value at α5 subunit receptors [3] (therapeutically relevant dose (3 μM) of α5-PAM in addition to GABA, mean±standard deviation, GABA alone −65.9±30.8) is −95.3±43.6 pA. For the same molecule, the “increase in current magnitude” value on α5 subunit receptors [3] (α5-PAM in addition to GABA vs GABA alone) was 52%.
